Results as given in US12005039B2, “Methods and compositions relating to lipokines for treating metabolic disorders” (Joslin Diabetes Center, Inc., priority 2018, dated 2024).

Columns and labels:
[1] = Respiratory exchange ratio and energy expenditure by CLAMS in acutely treated mice; type: in vivo; conditions: wild-type mice, acute injection 1 μg/kg body weight i.v., CLAMS 4 h at room temperature, vs vehicle
Protocol: (§1) For measurements of respiratory exchange ratio (RER) and energy expenditure, mice were placed in metabolic chambers and injected intravenously with 1 μg/kg body weight 12,13-diHOME in 0.1% BSA PBS or vehicle and then monitored in the Comprehensive Laboratory Animals Monitoring System (CLAMS) at room temperature (22° C.) for 4 h.
A major source of energy for the working skeletal muscles during exercise comes from the uptake and oxidation of fatty acids. To determine whether 12,13-diHOME increases fatty acid uptake and oxidation in skeletal muscle in vivo, a mouse model. ACTA1Cre+/−Rosa(stop)Luc+/−mice, was generated that constitutively expressed a bioluminescent reporter in skeletal muscle. Mice were injected intravenously with FFA-SS-Luc, which is a fatty acid conjugated to luciferin (Henkin et al., 2012; Liao et al., 2005), in the presence of 12,13-diHOME or a vehicle control. […] These surprising in vivo data provided a potential physiological function for the exercise-induced increases in 12,13-diHOME.

isolated mouse soleus = assay: 3H-2-deoxyglucose uptake in isolated soleus muscle; conditions: 300 ng/mL, 1 hour, vs vehicle
Protocol: (§2) For experiments measuring in vivo bioluminescent fatty acid uptake in skeletal muscle, ACTA1cre^+/− mice (Stock no. 006139) were bred with Rosa(stop)Luc^+/+ (Stock no. 005125) (Jackson Laboratory). Experiments measuring skeletal muscle glucose uptake in isolated skeletal muscle glucose uptake were performed in 6 week old, female, CD-1 IGS mice (Charles River Laboratories).
(§3) Isolated skeletal muscle glucose uptake was measured as previously described (Hayashi et al., 1998). Briefly, EDL or soleus muscles were dissected from 6 wk old female CD-1 mice, mounted, and incubated in Krebs-Ringer bicarbonate buffer (KRB) pH 7.4 containing 2 mM pyruvate for 60 min. Both EDL and soleus were incubated with vehicle or 300 ng/mL of 12,13-diHOME. Following treatment, glucose transport activity was measured for an additional 10 min.
(§4) Glucose is an important fuel source utilized during exercise. Accordingly, assays were performed to determine whether 12,13-diHOME increased glucose uptake in skeletal muscle. […] To confirm these findings, isolated mouse soleus and extensor digitorum longus (EDL) skeletal muscles were incubated with either vehicle or 12,13-diHOME for 1 hour.

3T3-L1 cells [2] = assay: 14C-palmitic acid uptake and oxidation in 3T3-L1 cells; type: cell-based; conditions: 1.5 μM, 15 min, vs vehicle
Protocol: (§5) Cells were housed at 37° C., 95% humidity and 5% CO2. C2C12 myoblasts (ATCC; passages 4-7) were maintained in DMEM containing 10% FBS and 1% penicillin/streptomycin. Differentiation was induced by incubating the cells in DMEM containing 2% horse serum and 1% penicillin/streptomycin for 4 days. 3T3-LI adipocytes (ATCC; passages 4-7) were maintained in DMEM containing 10% FBS and 1% penicillin/streptomycin. Differentiation was induced by incubating the cells in DMEM containing […] and 1% penicillin/streptomycin with 400 ng/mL dexamethasone, 1 μg/mL insulin, and 115 μg/mL IBMX for days 0-2, 1 μg/mL insulin for days 2-4, and DMEM with 10% FBS and 1% penicillin/streptomycin only days 4-8.
(§6) mRNA levels of were measured by quantitative RT-PCR using primers (Table 4). Fatty acid uptake and oxidation into differentiated C2C12 muscle cells and 3T3L1 adipocytes measured using ^14C-labeled palmitic acid uptake and conversion of ^14C-labeled palmitic acid into CO2 as previously described (Townsend et al., 2013). Cells were treated with 1.5 μM 12,13-diHOME or methyl acetate vehicle for 15 min, similar to previous studies (Lynes et al., 2017). Oxygen consumption rates (OCR) were measured in starved (1 hour) C2C12 skeletal muscle cells treated with 1.5 μM 12,13-diHOME or methyl acetate vehicle for 15 min and OCR measured in 200 μM palmitate (Seahorse XF24) (Vernochet et al., 2012). […]

[3] = test system: differentiated C2C12 cells; assay: 14C-palmitic acid uptake and oxidation in C2C12 cells; type: cell-based; conditions: 1.5 μM, 15 min, vs vehicle
Protocol: as §5, §6

3T3-L1 cells [4] = assay: Oxygen consumption rate in 3T3-L1 cells; type: cell-based; conditions: any condition (data not shown)
C2C12 cells = assay: Oxygen consumption rate (Seahorse XF24) in C2C12 cells; type: cell-based; conditions: 1.5 μM, 15 min, 200 μM palmitate, vs vehicle
Protocol: (§7) mRNA levels of were measured by quantitative RT-PCR using primers (Table 4). Fatty acid uptake and oxidation into differentiated C2C12 muscle cells and 3T3L1 adipocytes measured using ^14C-labeled palmitic acid uptake and conversion of ^14C-labeled palmitic acid into CO2 as previously described (Townsend et al., 2013). Cells were treated with 1.5 μM 12,13-diHOME or methyl acetate vehicle for 15 min, similar to previous studies (Lynes et al., 2017). Oxygen consumption rates (OCR) were measured in starved (1 hour) C2C12 skeletal muscle cells treated with 1.5 μM 12,13-diHOME or methyl acetate vehicle for 15 min and OCR measured in 200 μM palmitate (Seahorse XF24) (Vernochet et al., 2012).
To determine if 12,13-diHOME regulated mitochondrial function in muscle, differentiated C2C12 myotubes were incubated with 12,13-diHOME and then analyzed for mitochondrial respiration. 12,13-diHOME incubation increased basal oxygen consumption rate (OCR) and respiratory capacity in C2C12 cells (FIGS. 4A and 4B).

[5] = test system: isolated mouse extensor digitorum longus (EDL); assay: 3H-2-deoxyglucose uptake in isolated EDL muscle; conditions: 300 ng/mL, 1 hour, vs vehicle
Protocol: as §2, §3, §4

[6] = RER by CLAMS in exercise-trained iBAT- mice treated with 12,13-diHOME; type: in vivo; conditions: iBAT- mice exercise trained 3 weeks, acutely treated with 12,13-diHOME
Protocol: For iBAT-mice, mice were anesthetized using isofluorane. iBAT was surgically removed and the artery immediately cauterized. Sham mice underwent the same surgical procedure, but iBAT was not removed.
as §1
Therefore, an analysis of sham and iBAT-mice was performed to determine whether increased 12,13-diHOME with training regulated fat utilization in vivo. Sham and iBAT-mice were sedentary or exercise trained for 3 weeks and subsequently, the RER was measured in metabolic cages. […] In contrast, there was no effect of exercise training on RER in the iBAT-mice.

[7] = test system: mitochondrial and fatty acid oxidation genes; assay: Expression of mitochondrial and fatty acid genes in tissues after acute injection (qRT-PCR); conditions: mice injected in vivo
Protocol: as §7
To identify a mechanism for increased fat utilization with 12,13-diHOME in skeletal muscle, assays were performed to determine the effects of injecting mice with 12,13-diHOME in vivo on the expression of mitochondrial and fatty acid oxidation genes in tibialis anterior muscle. […] However, there was no effect of 12,13-diHOME on mitochondrial or fatty acid oxidation genes in scWAT, pgWAT, liver, or BAT (FIGS. 6D-6G). These findings were consistent with the data showing that 12,13-diHOME regulates fatty acid metabolism in skeletal muscle.

skeletal muscle = assay: In vivo bioluminescent fatty acid uptake in skeletal muscle (FFA-SS-Luc); conditions: ACTA1Cre+/- Rosa(stop)Luc+/- mice
Protocol: as §2
For experiments measuring in vivo bioluminescent fatty acid uptake in skeletal muscle, ACTA1cre^+/− mice (Stock no. 006139) were bred with Rosa(stop)Luc^+/+ (Stock no. 005125)(Jackson Laboratory). Male offspring carrying the cre allele were injected retro-orbitally with 1 μg/kg body weight 12,13-diHOME in 0.1% BSA PBS or methyl acetate as a vehicle and all mice were co-injected with 2 μm FFA-SS-Luc (Intrace Medical). This dose is based on the circulating concentration of 12,13-diHOME in mice that are housed at room temperature, 3 ng/mL (10 nM). After an acute bout of exercise, 12,13-diHOME increased to 10-30 ng/mL (30-100 nM). This is considerably below the reported cytotoxic dose of 100 mg/kg body weight (Sisemore et al., 2001). Mice were anesthetized and imaged (IVIS Spectrum CT) using sequential 30 second exposures for 12 min.
A major source of energy for the working skeletal muscles during exercise comes from the uptake and oxidation of fatty acids. […]

[8] = Sisemore et al., 2001; cited from earlier work
[9] = test system: differentiated C2C12 myotubes; assay: 3H-2-deoxyglucose uptake in C2C12 cells; type: cell-based; conditions: 1.5 mM, 15 min, vs vehicle
Protocol: 2-deoxyglucose uptake in C2C12 cells was measured as previously described (Nedachi and Kanzaki, 2006). Briefly, differentiated C2C12 myotubes were serum starved for 3 h in DMEM before any treatment. Cells were incubated with 12,13-diHOME ([…]; 15 min) or insulin (100 nM; 15 min). After stimulation, cells were washed with buffer containing 140 mM NaCl, 20 mM Hepes-Na (pH 7.4), 5 mM KCl, 2.5 mM MgSO4, and 1.0 mM CaCl2. Glucose transport was determined by the addition of ^3H-2-deoxyglucose for glucose for 10 min on ice. Cells were washed with ice-cold saline solution and harvested in 0.05 N NaOH to determine net accumulation of [^3H]-2-deoxyglucose (Nedachi and Kanzaki, 2006).
as §4

CCCCCC(O)C(O)C/C=C\CCCCCCCC(=O)O (stereo not drawn) [12,13-diHOME, 12,13-dihydroxy-9Z-octadecenoic acid]
energy expenditure [1]: independent of any change in energy expenditure
respiratory exchange ratio (RER) [1]: decreased
rate of glucose uptake (3H-2DG) (isolated mouse soleus): no effect
fatty acid oxidation (14C palmitic acid to CO2) (3T3-L1 cells [2]): did not increase
fatty acid uptake (14C palmitic acid) (3T3-L1 cells [2]): did not increase
fatty acid oxidation (14C palmitic acid to CO2) [3]: significant increase
fatty acid uptake (14C palmitic acid) [3]: significant increase
OCR (3T3-L1 cells [4]): did not increase OCR under any condition
ATP turnover (C2C12 cells): did not affect
basal oxygen consumption rate (OCR) (C2C12 cells): increased
maximal uncoupled respiration (C2C12 cells): did increase
respiratory capacity (C2C12 cells): increased
rate of glucose uptake (3H-2DG) [5]: no effect
RER [6]: significantly decreased
expression of mitochondrial or fatty acid oxidation genes ([7]; BAT): no effect
expression of mitochondrial and fatty acid genes ([7]; heart): increased expression of Nrf1 and Nrf2
expression of mitochondrial or fatty acid oxidation genes ([7]; liver): no effect
expression of mitochondrial or fatty acid oxidation genes ([7]; pgWAT): no effect
expression of mitochondrial or fatty acid oxidation genes ([7]; scWAT): no effect
expression of mitochondrial and fatty acid genes ([7]; tibialis anterior muscle): increased expression of several genes involved in mitochondrial activity and biogenesis (citrate synthase, Nrf1, Nrf2), and fatty acid uptake (Cd36, Fatp4)
fatty acid uptake in skeletal muscle (luciferase activity) (skeletal muscle; 1 μg/kg body weight injected with FFA-SS-Luc, vs vehicle): increased fatty acid uptake in skeletal muscle
time fatty acid uptake remained significantly elevated above vehicle (skeletal muscle; 1 μg/kg body weight, after injection): 10 min
reported cytotoxic dose [8]: 100 mg/kg body weight
glucose uptake (3H-2DG) [9]: did not affect glucose uptake
